In one assay the test system is HT-29. Nature of the assay: Cytotoxicity against human HT-29 cells assessed as reduction in cell viability incubated for 72 hrs by MTT assay. As to conditions: HT-29, 72 h. (Formazan colour is commonly taken as a measure of viable cells.)
The test system of a further assay is PC-3. As to the kind of experiment: Cytotoxicity against human PC3 cells assessed as reduction in cell viability incubated for 72 hrs by MTT assay. The settings on record: PC-3, 72 h.
Another assay has as its system A549. Nature of the assay: Cytotoxicity against human A549 cells assessed as reduction in cell viability incubated for 72 hrs by MTT assay. As to conditions: A549, 72 h.
The next assay relates to U-87 MG. Nature of the assay: Cytotoxicity against human U87MG cells assessed as reduction in cell viability incubated for 72 hrs by MTT assay.
A further assay deals with HEK-293T. As to the kind of experiment: Cytotoxicity against HEK293T cells assessed as reduction in cell viability incubated for 72 hrs by MTT assay. The settings on record: Homo sapiens.

Data on 19 compounds can be found in ChEMBL document CHEMBL4359898, “Pyrazolo-benzothiazole hybrids: Synthesis, anticancer properties and evaluation of antiangiogenic activity using in vitro VEGFR-2 kinase and in vivo transgenic zebrafish model” (Eur J Med Chem, 2019).

On to `Cc1ccc2nc(NC(=O)c3cn(-c4ccccc4)nc3-c3ccc(F)cc3)sc2c1`, for which the concentration for half-maximal inhibition (IC50) was 22.9 µM with HT-29; 20.5 µM in the assay with PC-3; 24.6 µM with A549; > 50 µM in the assay with U-87 MG; > 50 µM in the assay on HEK-293T.
Consider `COc1ccc2nc(NC(=O)c3cn(-c4ccccc4)nc3-c3ccccc3)sc2c1`, for which the IC50 is > 50 µM in the assay with HT-29; 17.5 µM with PC-3; > 50 µM in the assay with A549; 40.6 µM in the assay with U-87 MG; > 50 µM with HEK-293T.
For the compound `O=C(Nc1nc2ccccc2s1)c1cn(-c2ccccc2)nc1-c1ccc(Cl)cc1`, the IC50 came to 13.7 µM in the assay with HT-29; 7.75 µM in the assay with PC-3; 10.3 µM with A549; 11.5 µM in the assay with U-87 MG; 39.6 µM with HEK-293T.
For `COc1ccc(-c2nn(-c3ccccc3)cc2C(=O)Nc2nc3ccc(F)cc3s2)cc1` the same measures were 5.56 µM, 4.93 µM, 7.56 µM, 8.99 µM and 15.4 µM.
For `COc1ccc(-c2nn(-c3ccccc3)cc2C(=O)Nc2nc3ccc(Cl)cc3s2)cc1` the same measures were 6.57 µM, 6.51 µM, 4.71 µM, 8.71 µM and 12.6 µM.
For `COc1ccc(-c2nn(-c3ccccc3)cc2C(=O)Nc2nc3ccccc3s2)cc1` the same measures were 10.5 µM, 6.67 µM, 13.7 µM, 11.5 µM and 18.9 µM.
Take `O=C(Nc1nc2ccc(Cl)cc2s1)c1cn(-c2ccccc2)nc1-c1ccc(Cl)cc1`: the IC50 with HT-29 stood at 4.55 µM; in the assay with PC-3, 3.23 µM; with A549, 4.36 µM; in the assay on U-87 MG it was 5.87 µM; in the assay with HEK-293T, 15.7 µM.
For `COc1ccc(-c2nn(-c3ccccc3)cc2C(=O)Nc2nc3ccc(OC)cc3s2)cc1` the same measures were > 50 µM, 13.5 µM, 18.9 µM, 5.89 µM and > 50 µM.
For `O=C(Nc1nc2ccccc2s1)c1cn(-c2ccccc2)nc1-c1ccccc1` the same measures were 16.8 µM, 10.4 µM, 13.5 µM, 8.96 µM and > 50 µM.
The like results for `COc1ccc2nc(NC(=O)c3cn(-c4ccccc4)nc3-c3ccc(F)cc3)sc2c1` were, in that order, 33.2 µM, 12.8 µM, > 50 µM, > 50 µM and > 50 µM.
Turning to `O=C(Nc1nc2ccc(F)cc2s1)c1cn(-c2ccccc2)nc1-c1ccccc1`, the IC50 in the assay on HT-29 was found to be 9.8 µM; in the assay on PC-3, 3.25 µM; with A549, 10.2 µM; in the assay on U-87 MG, 5.57 µM; in the assay on HEK-293T it was 17.6 µM.
As for `COc1ccc(-c2nn(-c3ccccc3)cc2C(=O)Nc2nc3ccc(C)cc3s2)cc1`, the IC50 was 21.5 µM in the assay on HT-29; 15.9 µM with PC-3; 27.7 µM with A549; > 50 µM in the assay on U-87 MG; > 50 µM with HEK-293T.
Consider `O=C(Nc1nc2ccc(F)cc2s1)c1cn(-c2ccccc2)nc1-c1ccc(F)cc1`, for which the concentration for half-maximal inhibition (IC50) is 4.16 µM in the assay with HT-29; 5.26 µM in the assay with PC-3; 6.65 µM in the assay on A549; 12.5 µM in the assay on U-87 MG; 16.7 µM in the assay on HEK-293T.
The like results for `O=C(Nc1nc2ccccc2s1)c1cn(-c2ccccc2)nc1-c1ccc(F)cc1` were, in that order, 9.06 µM, 7.13 µM, 9.01 µM, 10.7 µM and 33.4 µM.
The like results for `O=C(Nc1nc2ccc(Cl)cc2s1)c1cn(-c2ccccc2)nc1-c1ccccc1` were, in that order, 7.81 µM, 3.69 µM, 7.67 µM, 4.98 µM and 21.3 µM.
For the compound `Cc1ccc2nc(NC(=O)c3cn(-c4ccccc4)nc3-c3ccc(Cl)cc3)sc2c1`, the IC50 was found to be 23.7 µM with HT-29; 14.5 µM with PC-3; 18.6 µM with A549; 33.2 µM in the assay with U-87 MG; 35.6 µM with HEK-293T.
For `O=C(Nc1nc2ccc(F)cc2s1)c1cn(-c2ccccc2)nc1-c1ccc(Cl)cc1` the same measures were 4.97 µM, 5.79 µM, 8.86 µM, 7.77 µM and > 50 µM.
The like results for `COc1ccc2nc(NC(=O)c3cn(-c4ccccc4)nc3-c3ccc(Cl)cc3)sc2c1` were, in that order, 18.6 µM, 29.3 µM, 31.4 µM, 21.2 µM and 29.6 µM.
For `Cc1ccc2nc(NC(=O)c3cn(-c4ccccc4)nc3-c3ccccc3)sc2c1` the same measures were > 50 µM, 15.7 µM, 26.5 µM, 23.2 µM and > 50 µM.

As a reminder, the IC50 is the concentration needed to halve the response being measured.
